# In ChEMBL document CHEMBL1201862, “PubChem BioAssay data set” (2004):
# The source made the active and inactive calls.
# Experiments:
# CHO-K1 = assay: (§1) Counterscreen for antagonists of the orexin 1 receptor (OX1R; HCRTR1): Homogeneous time resolved fluorescence (HTRF)-based cell-based dose response assay to identify antagonists of the parental CHO-K1 cell line. [Related pubchem assays (depositor defined):AID434989, AID435008, AID463079, AID485270, AID492963, AID492964, AID492965, AID493232, AID504699, AID504701]; assay type: functional; settings: Cricetulus griseus
# Orexin receptor type 2 [1] = target: T1, Orexin receptor type 2 (Homo sapiens, UniProt O43614); assay: Counterscreen assay for antagonists of the orexin 1 receptor (OX1R; HCRTR1): Fluorescence-based cell-based dose response assay for antagonists of the orexin 2 receptor (OX2R; HCRTR2), run by assay provider.; assay type: functional
# T1 sequence (O43614 whole entry): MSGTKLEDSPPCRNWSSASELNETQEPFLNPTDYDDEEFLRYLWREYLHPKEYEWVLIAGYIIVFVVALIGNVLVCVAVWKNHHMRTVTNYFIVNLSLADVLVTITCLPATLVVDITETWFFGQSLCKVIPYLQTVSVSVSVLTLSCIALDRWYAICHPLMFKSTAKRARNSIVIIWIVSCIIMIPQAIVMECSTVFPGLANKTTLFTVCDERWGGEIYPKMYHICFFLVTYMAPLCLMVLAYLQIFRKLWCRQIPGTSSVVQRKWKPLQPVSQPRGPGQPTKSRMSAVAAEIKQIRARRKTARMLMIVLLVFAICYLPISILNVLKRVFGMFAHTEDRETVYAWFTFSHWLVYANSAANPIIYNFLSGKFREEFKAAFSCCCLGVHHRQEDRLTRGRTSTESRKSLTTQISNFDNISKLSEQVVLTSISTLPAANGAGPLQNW
# Orexin receptor type 2 [2] = target: T1, Orexin receptor type 2; assay: Counterscreen assay for antagonists of the orexin 1 receptor (OX1R; HCRTR1): Homogeneous Time Resolved Fluorescence (HTRF)-based cell-based dose response assay for antagonists of the orexin 2 receptor (OX2R; HCRTR2), run by assay provider.; assay type: functional
# [3] = target: T2, Orexin/Hypocretin receptor type 1 (Homo sapiens, UniProt O43613); assay: (§2) Fluorescence-based cell-based high throughput dose response assay for antagonists of the orexin 1 receptor (OX1R; HCRTR1). [Related pubchem assays (depositor defined):AID434989, AID435008, AID463079, AID485270, AID492963, AID492964, AID492965, AID493232, AID504717, AID504718]; assay type: functional
# T2 sequence (O43613 whole entry): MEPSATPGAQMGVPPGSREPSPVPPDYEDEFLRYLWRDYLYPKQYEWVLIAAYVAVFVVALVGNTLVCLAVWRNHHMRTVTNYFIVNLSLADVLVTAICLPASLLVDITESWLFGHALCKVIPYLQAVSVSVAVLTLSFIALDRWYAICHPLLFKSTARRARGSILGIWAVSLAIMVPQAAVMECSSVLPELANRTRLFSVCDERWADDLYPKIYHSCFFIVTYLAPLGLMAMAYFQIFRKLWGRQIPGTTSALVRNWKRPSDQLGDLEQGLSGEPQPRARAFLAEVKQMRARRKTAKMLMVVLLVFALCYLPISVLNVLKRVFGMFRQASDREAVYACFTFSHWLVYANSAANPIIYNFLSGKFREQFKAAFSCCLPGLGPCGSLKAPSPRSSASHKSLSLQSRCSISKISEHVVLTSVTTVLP
# [4] = as §1, with “Fluorescence-based” for “Homogeneous time resolved fluorescence (HTRF)-based”, “cell-based high throughput” for “cell-based”, “CHO” for “CHO-K1”; assay type: functional
# [5] = target: T2, Orexin/Hypocretin receptor type 1; assay: as §2, with “Homogeneous Time Resolved Fluorescence (HTRF)-based” for “Fluorescence-based”; assay type: functional
# [6] = target: Adenosylmethionine-8-amino-7-oxononanoate aminotransferase (Mycobacterium tuberculosis, UniProt P9WQ81); assay: Mycobacterium tuberculosis BioA enzyme inhibitor Measured in Biochemical System Using Plate Reader - 2163-02_Inhibitor_Dose_CherryPick_Activity.; assay type: functional, Mycobacterium tuberculosis UT205
# [7] = target: T3, Mitochondrial peptide methionine sulfoxide reductase (Bos taurus, UniProt P54149); assay type: functional;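 further: absorbance read-out, biochemical high-throughput dose-response screen for MsrA inhibitors, confirmatory; recombinant bovine MsrA coupled to E. coli TrxB with NADPH and selenocystamine; potency is for inhibitors of MsrA activity on DMSO substrate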
# T3 sequence (P54149 whole entry): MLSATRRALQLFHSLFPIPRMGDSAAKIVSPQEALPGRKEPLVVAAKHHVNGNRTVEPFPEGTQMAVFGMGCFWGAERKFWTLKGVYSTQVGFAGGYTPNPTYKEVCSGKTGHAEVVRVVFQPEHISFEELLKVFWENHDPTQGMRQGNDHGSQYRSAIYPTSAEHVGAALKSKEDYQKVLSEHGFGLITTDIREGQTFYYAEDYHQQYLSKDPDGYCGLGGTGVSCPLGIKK
# Streptococcus = assay: GAS UMAA2166 growth inhibition – luminescence, BacTiterGlo, counter-screen for streptokinase expression inhibitor project, dose response (AID 1915); assay type: functional, organism-based;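 further: potency for reduction of bacterial viability or growth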
# cells [8] = assay: cells
# [9] = target: 26S proteasome non-ATPase regulatory subunit 14 (Homo sapiens, UniProt O00487); assay: inhibition of proteasome subunit RPN11 – biochemical, fluorescence polarization, uHTS hits, confirmation (AID 602368); assay type: functional
# [10] = system: Streptococcus sp. 'group A'; assay: Streptococcus pyogenes SK(-)GAS viability under kanamycin – luminescence, BacTiterGlo, confirmation, counter-screen for streptokinase expression inhibitor project, dose response (AID 1900); assay type: functional, organism-based
# [11] = target: DNA (cytosine-5)-methyltransferase 1 (Homo sapiens, UniProt P26358); assay: inhibition of DNA methylation by DNMT1 – biochemical, fluorescent molecular beacon, confirmation (AID 602386); assay type: functional
# [12] = target: 72 kDa type IV collagenase (Homo sapiens, UniProt P08253); assay: Dose Response validation of uHTS RPN11 inhibitor hits using a MMP-2 Fluorescence assay.; assay type: functional
# Streptokinase A = target: T4, Streptokinase A (Streptococcus pyogenes serotype M1, UniProt P10520); assay: viability-normalized secreted streptokinase activity reduction – plasminogen activation absorbance, OD405, dose response (AID 1914); assay type: functional, Streptococcus pyogenes M1 GAS;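 further: secreted streptokinase activity via plasminogen activation per viability signal from cell pellet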
# T4 sequence (P10520 whole entry): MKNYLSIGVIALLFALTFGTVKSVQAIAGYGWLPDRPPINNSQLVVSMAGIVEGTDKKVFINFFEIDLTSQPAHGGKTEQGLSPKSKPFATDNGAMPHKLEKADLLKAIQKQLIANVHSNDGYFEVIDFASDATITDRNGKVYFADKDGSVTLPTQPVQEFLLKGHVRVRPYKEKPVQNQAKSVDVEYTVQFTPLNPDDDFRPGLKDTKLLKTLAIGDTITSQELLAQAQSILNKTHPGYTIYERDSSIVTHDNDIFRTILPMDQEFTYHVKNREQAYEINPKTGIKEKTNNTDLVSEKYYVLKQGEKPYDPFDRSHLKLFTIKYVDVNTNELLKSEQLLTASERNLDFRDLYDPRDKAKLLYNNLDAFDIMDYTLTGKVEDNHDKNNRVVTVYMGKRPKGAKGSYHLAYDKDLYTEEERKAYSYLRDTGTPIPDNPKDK
# Prothrombin = Prothrombin (Bos taurus, UniProt P00735); assay: thrombin protease inhibitors – biochemical, fluorescence polarization, uHTS hits, dose response (AID 602369); assay type: functional
# [13] = target: T5, High affinity choline transporter 1 (Homo sapiens, UniProt Q9GZV3); assay: human choline transporter blockers, potency – cell-based, 5-point CRC, membrane potential dye, dose response (AID 504840); assay type: functional
# T5 sequence (Q9GZV3 whole entry): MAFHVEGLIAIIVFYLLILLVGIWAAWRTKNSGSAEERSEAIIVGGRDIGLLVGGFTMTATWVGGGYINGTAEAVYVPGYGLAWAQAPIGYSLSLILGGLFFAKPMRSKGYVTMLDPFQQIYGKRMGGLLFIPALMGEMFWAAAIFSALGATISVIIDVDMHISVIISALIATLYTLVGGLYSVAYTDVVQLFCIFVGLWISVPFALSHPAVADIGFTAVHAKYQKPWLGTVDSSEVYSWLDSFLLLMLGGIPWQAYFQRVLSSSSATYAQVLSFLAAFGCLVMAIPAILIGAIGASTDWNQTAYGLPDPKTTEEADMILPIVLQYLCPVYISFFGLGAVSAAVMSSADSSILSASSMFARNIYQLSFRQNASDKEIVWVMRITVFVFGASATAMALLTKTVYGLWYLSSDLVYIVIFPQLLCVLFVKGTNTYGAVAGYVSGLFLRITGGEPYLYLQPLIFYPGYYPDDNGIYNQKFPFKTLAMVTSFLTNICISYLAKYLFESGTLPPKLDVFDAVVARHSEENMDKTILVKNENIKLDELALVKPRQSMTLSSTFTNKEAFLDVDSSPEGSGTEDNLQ
# [14] = target: T5, High affinity choline transporter 1; assay: human choline transporter blockers, potency – cell-based, 10-point CRC, membrane potential dye, dose response (AID 588401); assay type: functional;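 further: membrane potential dye fluorescence of choline-evoked depolarization via CHT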
# [15] = target: Protein disulfide-isomerase (Homo sapiens, UniProt P07237); assay: inhibition of PDI-driven insulin aggregation – biochemical, turbidity, absorbance, cherry-picked samples, dose response (AID 602350); assay type: functional
# [16] = target: T6, Small ubiquitin-related modifier 1 (Homo sapiens, UniProt P63165); assay: SUMO1 protein-protein binding blockers, potency – biochemical, FRET, dose response (AID 624383); assay type: functional; settings: read-out: IC50_Mean
# [17] = target: T6, Small ubiquitin-related modifier 1; assay: SUMO1 protein interaction blockers, potency – biochemical, fluorescence polarization, uHTS hits, dose response (AID 624382); assay type: functional; settings: read-out: IC50_Mean
# cells [18] = assay type: functional, cell-based
# cells [19] = assay type: functional, cell-based; remark: listed apart in the source
# [20] = target: ATP-dependent translocase ABCB1 (Homo sapiens, UniProt P08183); assay: inhibition of P-gp mediated JC-1 efflux – Jurkat-DNR cells, flow cytometry, dose response (AID 1689); assay type: functional
# [21] = target: Tyrosine-protein phosphatase non-receptor type 5 (Homo sapiens, UniProt P54829); assay: PTPN5 enzyme inhibition – biochemical, fluorescence intensity, uHTS hits, confirmation (AID 602372); assay type: functional; settings: read-out: IC50_Mean
# [22] = target: T7, Carboxy-terminal domain RNA polymerase II polypeptide A small phosphatase 1 (Homo sapiens, UniProt Q9GZU7); assay: CTDSP1 inhibitors, concentration-response, biochemical, absorbance readout, ultra-high-throughput screen actives (AID 540297); assay type: functional
# T7 sequence (Q9GZU7 whole entry): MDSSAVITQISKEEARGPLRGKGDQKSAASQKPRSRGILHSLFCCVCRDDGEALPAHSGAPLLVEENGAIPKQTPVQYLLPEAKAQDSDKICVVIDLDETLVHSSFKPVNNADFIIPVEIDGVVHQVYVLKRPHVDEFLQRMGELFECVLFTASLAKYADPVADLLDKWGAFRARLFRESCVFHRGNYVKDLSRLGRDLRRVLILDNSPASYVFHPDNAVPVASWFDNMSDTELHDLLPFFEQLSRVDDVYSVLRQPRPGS
# [23] = target: Dual specificity protein phosphatase 3 (Homo sapiens, UniProt P51452); assay: VHR phosphatase inhibition, dose response, selectivity assay for STEP inhibitor project, biochemical (AID 602374); assay type: functional; settings: read-out: IC50_Mean
# [24] = target: Tyrosine-protein phosphatase non-receptor type 11 (Homo sapiens, UniProt Q06124); assay: PTPN11 enzyme inhibitors – biochemical, selectivity assay for STEP inhibitor project, dose response (AID 602367); assay type: functional; settings: read-out: IC50_Mean
# Chain of Tyrosine-protein phosphatase non-receptor type 11 (Q06124 whole entry): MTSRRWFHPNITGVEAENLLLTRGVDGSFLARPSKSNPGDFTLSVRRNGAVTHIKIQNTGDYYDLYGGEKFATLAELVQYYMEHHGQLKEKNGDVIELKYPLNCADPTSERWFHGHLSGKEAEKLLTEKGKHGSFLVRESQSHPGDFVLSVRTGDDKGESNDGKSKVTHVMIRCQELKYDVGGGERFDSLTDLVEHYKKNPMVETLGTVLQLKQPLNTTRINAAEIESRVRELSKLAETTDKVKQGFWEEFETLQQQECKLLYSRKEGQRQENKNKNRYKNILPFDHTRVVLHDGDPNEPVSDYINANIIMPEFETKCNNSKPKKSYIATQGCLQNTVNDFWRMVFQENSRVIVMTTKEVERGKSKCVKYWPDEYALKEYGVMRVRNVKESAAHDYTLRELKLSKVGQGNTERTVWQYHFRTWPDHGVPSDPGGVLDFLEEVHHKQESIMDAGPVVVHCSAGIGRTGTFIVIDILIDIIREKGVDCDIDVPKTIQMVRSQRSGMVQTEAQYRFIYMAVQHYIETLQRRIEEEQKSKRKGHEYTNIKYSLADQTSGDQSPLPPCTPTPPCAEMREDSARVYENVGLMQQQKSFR
# Chain of 72 kDa type IV collagenase (P08253 whole entry): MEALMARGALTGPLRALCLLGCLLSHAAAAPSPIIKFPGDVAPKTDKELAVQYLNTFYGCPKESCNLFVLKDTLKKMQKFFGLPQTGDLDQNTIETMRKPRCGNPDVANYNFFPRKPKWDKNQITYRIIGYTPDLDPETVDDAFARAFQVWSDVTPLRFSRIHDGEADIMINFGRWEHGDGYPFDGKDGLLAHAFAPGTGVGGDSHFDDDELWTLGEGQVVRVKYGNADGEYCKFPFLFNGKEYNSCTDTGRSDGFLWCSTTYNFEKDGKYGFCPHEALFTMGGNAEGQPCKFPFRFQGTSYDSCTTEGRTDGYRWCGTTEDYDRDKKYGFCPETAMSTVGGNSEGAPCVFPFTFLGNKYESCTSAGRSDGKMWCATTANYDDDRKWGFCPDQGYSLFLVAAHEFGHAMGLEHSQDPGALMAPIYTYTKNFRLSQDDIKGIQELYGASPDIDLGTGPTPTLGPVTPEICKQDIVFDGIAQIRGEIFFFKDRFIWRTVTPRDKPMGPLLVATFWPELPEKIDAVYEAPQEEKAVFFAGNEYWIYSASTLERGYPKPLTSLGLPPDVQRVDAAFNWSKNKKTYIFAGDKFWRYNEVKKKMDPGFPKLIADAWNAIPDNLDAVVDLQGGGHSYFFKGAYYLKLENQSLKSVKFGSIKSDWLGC
# T6 sequence (P63165 whole entry): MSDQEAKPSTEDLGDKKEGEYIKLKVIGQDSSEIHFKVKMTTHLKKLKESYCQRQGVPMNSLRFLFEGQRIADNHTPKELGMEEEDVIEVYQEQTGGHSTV
# Chain of 26S proteasome non-ATPase regulatory subunit 14 (O00487 whole entry): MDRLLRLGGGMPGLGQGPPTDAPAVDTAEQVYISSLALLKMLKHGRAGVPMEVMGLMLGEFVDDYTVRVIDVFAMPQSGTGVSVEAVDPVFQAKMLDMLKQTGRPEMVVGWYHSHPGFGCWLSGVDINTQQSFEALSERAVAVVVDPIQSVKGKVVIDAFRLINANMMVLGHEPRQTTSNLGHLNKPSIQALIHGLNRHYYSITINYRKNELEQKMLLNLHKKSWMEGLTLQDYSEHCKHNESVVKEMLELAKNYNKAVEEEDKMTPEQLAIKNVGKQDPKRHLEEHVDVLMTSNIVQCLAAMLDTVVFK
# Chain of ATP-dependent translocase ABCB1 (P08183 whole entry): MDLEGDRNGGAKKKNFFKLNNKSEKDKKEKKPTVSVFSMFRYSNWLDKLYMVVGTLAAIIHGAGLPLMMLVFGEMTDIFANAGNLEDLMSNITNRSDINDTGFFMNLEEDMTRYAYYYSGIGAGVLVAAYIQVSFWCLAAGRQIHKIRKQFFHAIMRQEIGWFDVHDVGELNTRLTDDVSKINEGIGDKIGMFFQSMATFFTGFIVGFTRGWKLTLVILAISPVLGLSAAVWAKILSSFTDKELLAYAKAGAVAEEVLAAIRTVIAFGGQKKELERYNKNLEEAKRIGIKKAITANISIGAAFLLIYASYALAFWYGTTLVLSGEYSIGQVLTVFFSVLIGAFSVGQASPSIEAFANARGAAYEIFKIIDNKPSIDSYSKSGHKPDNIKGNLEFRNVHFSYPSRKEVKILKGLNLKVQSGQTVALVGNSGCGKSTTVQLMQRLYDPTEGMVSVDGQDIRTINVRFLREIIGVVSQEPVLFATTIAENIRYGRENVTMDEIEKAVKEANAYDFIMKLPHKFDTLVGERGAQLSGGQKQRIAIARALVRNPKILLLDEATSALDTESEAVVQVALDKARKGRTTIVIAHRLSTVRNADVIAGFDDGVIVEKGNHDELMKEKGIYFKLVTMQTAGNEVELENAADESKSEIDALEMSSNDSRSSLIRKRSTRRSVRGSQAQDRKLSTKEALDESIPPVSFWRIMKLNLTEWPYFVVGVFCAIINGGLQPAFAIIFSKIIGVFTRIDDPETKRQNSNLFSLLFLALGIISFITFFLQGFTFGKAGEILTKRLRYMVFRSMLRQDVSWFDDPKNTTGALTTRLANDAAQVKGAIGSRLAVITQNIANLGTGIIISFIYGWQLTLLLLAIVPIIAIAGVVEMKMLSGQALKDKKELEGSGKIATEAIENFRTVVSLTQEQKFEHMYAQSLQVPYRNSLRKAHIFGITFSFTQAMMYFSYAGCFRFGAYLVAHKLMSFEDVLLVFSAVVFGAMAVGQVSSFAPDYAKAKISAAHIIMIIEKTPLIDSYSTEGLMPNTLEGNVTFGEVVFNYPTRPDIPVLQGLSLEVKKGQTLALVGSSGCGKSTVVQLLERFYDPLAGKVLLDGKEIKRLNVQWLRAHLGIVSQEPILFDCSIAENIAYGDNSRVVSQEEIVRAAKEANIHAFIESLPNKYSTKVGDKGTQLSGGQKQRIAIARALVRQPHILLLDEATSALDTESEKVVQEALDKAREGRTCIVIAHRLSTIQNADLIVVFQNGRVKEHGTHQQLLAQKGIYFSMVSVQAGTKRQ
# Chain of Adenosylmethionine-8-amino-7-oxononanoate aminotransferase (P9WQ81 whole entry): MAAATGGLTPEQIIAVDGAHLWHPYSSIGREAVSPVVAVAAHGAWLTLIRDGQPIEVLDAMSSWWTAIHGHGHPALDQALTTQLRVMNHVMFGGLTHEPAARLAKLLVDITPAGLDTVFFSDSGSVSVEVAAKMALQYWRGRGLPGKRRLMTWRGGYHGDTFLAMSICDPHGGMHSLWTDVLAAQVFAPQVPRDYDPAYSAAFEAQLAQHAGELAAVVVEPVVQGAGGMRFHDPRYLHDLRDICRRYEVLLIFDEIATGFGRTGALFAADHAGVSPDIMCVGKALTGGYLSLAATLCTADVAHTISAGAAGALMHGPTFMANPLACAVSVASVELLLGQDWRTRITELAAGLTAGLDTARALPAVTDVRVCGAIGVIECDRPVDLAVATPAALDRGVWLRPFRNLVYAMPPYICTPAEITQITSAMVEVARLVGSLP
# Chain of Dual specificity protein phosphatase 3 (P51452 whole entry): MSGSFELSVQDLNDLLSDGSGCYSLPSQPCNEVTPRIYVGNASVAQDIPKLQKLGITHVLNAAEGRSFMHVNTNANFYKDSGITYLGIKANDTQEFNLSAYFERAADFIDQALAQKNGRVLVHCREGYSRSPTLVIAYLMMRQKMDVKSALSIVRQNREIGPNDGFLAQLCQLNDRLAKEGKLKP
# Chain of Tyrosine-protein phosphatase non-receptor type 5 (P54829 whole entry, the tested form may be a part): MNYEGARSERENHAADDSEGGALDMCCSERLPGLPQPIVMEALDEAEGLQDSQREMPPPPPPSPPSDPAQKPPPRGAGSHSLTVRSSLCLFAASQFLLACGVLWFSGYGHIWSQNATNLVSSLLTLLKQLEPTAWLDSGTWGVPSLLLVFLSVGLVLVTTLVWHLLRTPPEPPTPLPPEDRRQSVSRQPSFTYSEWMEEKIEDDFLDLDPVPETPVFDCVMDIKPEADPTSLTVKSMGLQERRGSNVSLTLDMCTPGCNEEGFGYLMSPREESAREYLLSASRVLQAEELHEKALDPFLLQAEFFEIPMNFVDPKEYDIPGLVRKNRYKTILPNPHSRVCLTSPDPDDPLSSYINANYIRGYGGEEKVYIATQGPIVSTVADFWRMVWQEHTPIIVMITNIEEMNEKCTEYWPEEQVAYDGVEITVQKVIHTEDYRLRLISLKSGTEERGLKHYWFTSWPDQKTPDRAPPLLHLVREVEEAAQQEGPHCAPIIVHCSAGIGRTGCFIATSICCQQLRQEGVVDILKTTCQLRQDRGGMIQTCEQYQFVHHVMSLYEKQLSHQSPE
# Chain of Protein disulfide-isomerase (P07237 whole entry): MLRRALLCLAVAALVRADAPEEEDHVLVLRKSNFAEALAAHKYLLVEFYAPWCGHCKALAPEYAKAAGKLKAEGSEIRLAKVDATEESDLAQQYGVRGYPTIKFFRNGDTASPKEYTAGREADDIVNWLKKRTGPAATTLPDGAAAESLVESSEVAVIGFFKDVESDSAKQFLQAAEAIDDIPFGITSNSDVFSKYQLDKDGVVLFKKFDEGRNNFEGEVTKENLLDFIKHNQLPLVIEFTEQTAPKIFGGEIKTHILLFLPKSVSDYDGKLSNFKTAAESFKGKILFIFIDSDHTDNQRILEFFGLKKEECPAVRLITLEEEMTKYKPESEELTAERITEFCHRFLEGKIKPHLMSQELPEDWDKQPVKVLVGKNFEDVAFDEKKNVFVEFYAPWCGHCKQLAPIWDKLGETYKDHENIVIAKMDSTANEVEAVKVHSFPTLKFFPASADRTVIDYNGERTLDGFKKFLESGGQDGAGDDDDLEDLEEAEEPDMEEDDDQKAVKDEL
smiles,measurement,setting,value
COc1cc(CN2CC(=O)N(c3ccccc3Cl)C2=S)cc(OC)c1OC,IC50,CHO-K1,> 66.2 µM (inactive)
same,IC50,Orexin receptor type 2 [1],> 88.8 µM (inactive)
same,IC50,Orexin receptor type 2 [2],> 50 µM (inactive)
same,IC50,[3],6.26 µM (active)
same,IC50,[4],21.4 µM (inactive)
same,IC50,[5],1.01 µM (active)
CC(=O)Nc1ccc2[nH]c(-c3cccnc3)nc2c1,AC50,[6],4.1 µM (active)
O=C(O)COc1ccc(/C=N/NC(=O)/C(=C/C=C/c2ccccc2)NC(=O)c2ccccc2)cc1,IC50,[7],103 µM (inactive)
CCOC(=O)C1=C(C)N=c2s/c(=C/c3ccc(OCC(=O)O)c(OC)c3)c(=O)n2C1c1ccc(Cl)cc1 (centres undefined),EC50,Streptococcus,13.2 µM (active)
same,IC50,cells [8],45.5 µM (active)
same,IC50,[9],11.7 µM (active)
same,EC50,[10],9.79 µM (active)
same,IC50,[11],10.2 µM (active)
same,IC50,[12],> 100 µM (inactive)
same,EC50,Streptokinase A,> 150 µM (not active)
same,IC50,Prothrombin,25.1 µM (active)
CCc1c(C)nc(N)nc1N1N=C1SCCOc1ccccc1,IC50,[13],9.19 µM (active)
same,IC50,[14],4.47 µM (active)
COc1ccccc1N1CCN(C(=O)C(=O)N/N=C/c2cccc(O)c2)CC1,AC50,[15],19.5 µM (active)
O=c1cc(-c2ccc(O)cc2)oc2c1ccc1ccccc12,IC50,[9],47.7 µM (active)
same,IC50,[12],> 100 µM (inactive)
same,IC50,Prothrombin,62.2 µM (active)
same,IC50,[16],7.87 µM (active)
same,IC50,[17],> 66.6 µM (inactive)
COc1ccc(/C=N/NC(=O)c2cccnc2)cc1CN1CCN(c2ccc(F)cc2)CC1,EC50,cells [18],> 350 µM (not active)
same,EC50,cells [19],> 350 µM (not active)
same,EC50,[20],1.01 µM (active)
CCCCCn1c(N)c(-c2nc3ccccc3o2)c2c([N+](=O)[O-])nn(C)c(=O)c21,IC50,[21],> 80 µM (inactive)
same,IC50,[22],3.06 µM (active)
same,IC50,[23],0.343 µM (active)
same,IC50,[24],0.738 µM (active)
Cc1ccc(-c2csc3nnc(SCC(=O)Nc4nsc(-c5ccccc5)n4)n23)cc1,IC50,CHO-K1,> 66.2 µM (inactive)
same,IC50,Orexin receptor type 2 [1],> 88.8 µM (inactive)
same,IC50,Orexin receptor type 2 [2],0.177 µM (active)
same,IC50,[3],5.64 µM (active)
same,IC50,[4],> 49.7 µM (inactive)
same,IC50,[5],2.53 µM (active)
Fc1ccccc1N=C(S)NNc1ncc(C(F)(F)F)cc1Cl,IC50,[13],10 µM (active)
same,IC50,[14],3.55 µM (active)
